# Results taken from patent EP4806903A1, “WHOLE-PROCESS TARGETING POLYPEPTIDE, PHARMACEUTICAL COMPLEX THEREOF, DRUG DELIVERY SYSTEM AND USE THEREOF” (Fudan University, priority 2023, dated 2025).
# Where no end group is shown, it is not given here. [ ]: non-standard residue; d: D form.
# Assays:
# GRP78 protein [1] = assay: Western blot of GRP78 protein on the cell membrane of U87 cells; type: cell-based
# Method: After cells were subjected to various treatments, the culture medium was removed, and the cells were washed twice with pre-cooled PBS. The cells were then scraped off and collected into an EP tube. Membrane proteins were extracted using a cell membrane protein extraction kit, followed by centrifugation at 12,000 rpm at 4°C to obtain the supernatant, which was stored for later use. The total protein concentration was determined using the BCA assay, after which the sample was mixed with 5× loading buffer at a ratio of 4:1 and heated to denature the proteins. The samples were stored at -20°C for future use. Samples containing approximately 40 µg of protein were subjected to 15% polyacrylamide gel electrophoresis and then transferred onto polyvinylidene fluoride (PVDF) membranes. […]
# After U87 cells were treated with free DOX at different concentrations for 48 hours, membrane proteins were extracted and detected using the method described above.
# After U87 cells were treated with different concentrations of TMZ for 48 hours, membrane proteins were extracted and detected using the method described above.
# After U87 cells were treated with 5 µg/mL TMZ for varying durations, membrane proteins were extracted and analyzed using the method described above.
# GRP78 protein [2] = assay: Western blot of GRP78 protein in tumors of orthotopic glioma mice; type: in vivo, nude mice; conditions: TMZ 10 mg/mL by gavage, after 48 hours
# in situ glioma = assay: Efficacy of TMZ combined with peptide-DOX complex in in situ glioma; conditions: TMZ 10 mg/kg by gavage Days 3-21; pHA-AO1HX-VAP-DOX equivalent to 3 mg/kg DOX tail vein Days 5-23; n = 10
# Method: The in situ glioma model was established as above, with the day of modeling set as Day 0. On Days 3, 5, 7, 9, 11, 13, 15, 17, 19, and 21, mice were administered TMZ by gavage at a single dose of 10 mg/kg.
# [3] = target: glucose-regulated protein GRP78 (Homo sapiens, UniProt P11021); conditions: previously validated by research team; cited from earlier work
# Chain of glucose-regulated protein GRP78 (P11021 19-654): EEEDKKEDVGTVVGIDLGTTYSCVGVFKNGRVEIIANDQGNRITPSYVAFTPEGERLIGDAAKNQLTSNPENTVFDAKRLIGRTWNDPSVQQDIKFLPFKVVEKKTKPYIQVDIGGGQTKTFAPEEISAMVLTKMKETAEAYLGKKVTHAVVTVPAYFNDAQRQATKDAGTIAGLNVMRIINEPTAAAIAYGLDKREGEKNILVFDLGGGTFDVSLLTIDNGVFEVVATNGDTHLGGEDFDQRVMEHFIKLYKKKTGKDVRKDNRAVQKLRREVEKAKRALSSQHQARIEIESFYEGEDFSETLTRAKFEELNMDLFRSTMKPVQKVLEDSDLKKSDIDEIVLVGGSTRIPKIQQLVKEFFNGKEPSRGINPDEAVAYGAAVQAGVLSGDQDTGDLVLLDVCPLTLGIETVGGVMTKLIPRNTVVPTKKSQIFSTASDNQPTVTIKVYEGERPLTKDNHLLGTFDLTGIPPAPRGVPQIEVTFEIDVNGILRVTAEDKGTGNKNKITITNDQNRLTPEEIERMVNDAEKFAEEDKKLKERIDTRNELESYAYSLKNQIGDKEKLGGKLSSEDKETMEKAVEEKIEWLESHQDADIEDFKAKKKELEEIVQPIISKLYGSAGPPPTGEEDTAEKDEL
# [4] = In vivo distribution in nude mouse model of orthotopic glioma; set-up: species or system nude mice; conditions: DOX dose 5 mg/kg, tail vein, 30 minutes; compared to free DOX
# Method: Approximately 22 g nude mice were anesthetized and fixed onto a stereotaxic apparatus. An orthotopic glioma mouse model was established by injecting 5 µL of U87 cell suspension (8×10^5 cells) with microsyringe into the striatum of the mice (0.6 mm anteroposterior to the bregma, 1.8 mm lateral to the midline, and 3 mm ventral to the surface). Ten days after tumor implantation, the mice were administered DOX (5 mg/kg) or pHA-AOnHX-VAP-DOX (n = 1, 2, 3, 5; DOX dose: 5 mg/kg) via tail vein injection. Thirty minutes later, the mice were anesthetized, perfused with PBS, and the major organs including the brain, heart, liver, spleen, lungs, and kidneys were collected. The tissues from each organ were blotted dry with filter paper and weighed. Then, according to the weight of each organ, a specific volume of isopropanol containing 0.075 M HCl and 10% water was added, followed by homogenization. After overnight incubation at 4°C, the samples were centrifuged, and the supernatants were collected for analysis. […] As depicted in Figure 30, the accumulation of DOX in the heart was reduced by pHA-AOnHX-VAP-DOX (n = 1, 2, 3, 5), while the drug concentration in the blood was increased.
# [5] = Saturation solubility in PBS; type: physicochemical; conditions: aqueous buffer, PBS pH 7.4, 37°C, calculated based on DOX
# Method: The mixture was incubated at 37°C for 24 hours, then filtered through a membrane of 0.22 µm. The filtrates were subsequently diluted 10-fold and 20-fold, respectively, and the concentration of DOX was measured.
# Tumor cells U87 = assay: Intracellular DOX detection in U87 cells; type: cell-based; conditions: 4 hours, 37°C
# Method: Tumor cells U87 in the logarithmic growth phase and macrophages RAW264.7, both cultured as monolayers, were detached from the culture dishes by digestion with 0.25% trypsin. The single-cell suspensions were prepared in DMEM medium supplemented with 10% fetal bovine serum. Each well of a 6-well plate was seeded with 5 × 10^5 cells in a volume of 2 mL per well. The plates were then transferred to a CO2 incubator and cultured overnight at 37°C under conditions of 5% CO2 and saturated humidity. After overnight incubation, the culture medium was wholly aspirated from each well. DOX, pHA-AHX-VAP-DOX, and pHA-AOnHX-VAP-DOX (n = 1, 2, 3, 5) solutions were added to the wells, and the cells were incubated at 37°C for 4 hours. The supernatant was then discarded. Following cell collection by trypsinization, the cells were washed three times with PBS and counted. After the final wash, any remaining supernatant was wholly removed. To the cell pellet, acidified methanol (Vmethanol : Vmethanoic acid = 98:2) was added, and the cells were subjected to sonication. After centrifugation at 10,000 rpm for 10 minutes, the supernatant was collected and analyzed for DOX concentration.
# [6] = Maximum tolerated dose study; set-up: species or system Male Balb/c mice; conditions: mouse, in vivo, iv; tail vein, 14 days monitoring; dose at which no mice died; expressed as DOX
# Method: The body weight changes of the mice were recorded daily (relative body weight change = daily body weight / initial body weight), with continuous monitoring for 14 days to observe whether any mice died.
# U87 orthotopic glioma = assay: In vivo pharmacodynamic study, survival of U87 orthotopic glioma mice; set-up: species or system nude mice; conditions: single dose of DOX 1 mg/kg, intravenous, every other day from day 5
# Method: Approximately 20 g nude mice were anesthetized and fixed onto a stereotaxic apparatus. Orthotopic glioma mouse model was established by injecting 5 µL of U87 cell suspension (5×10^5 cells) with microsyringe into the striatum of the mice (0.6 mm anteroposterior to the bregma, 1.8 mm lateral to the midline, and 3 mm deep). On day 5 after tumor implantation, the mice were randomly divided into four groups, with 10 mice per group.
compound,measurement,setting,value
"Cn1nnc2c(C(N)=O)ncn2c1=O [TMZ, temozolomide]",time after which GRP78 protein on the cell membrane began to significantly upregulate,"GRP78 protein [1]; 5 µg/mL TMZ, varying durations up to 48 hours",12 h
same,expression of GRP78 protein in tumor tissue relative to control group,GRP78 protein [2],1.45 times
same,median survival time,in situ glioma,48 days
"^DVAP: D-type amino acid sequence ^DP^DA^DV^DR^DT^DN^DS, SEQ ID NO: 3 ([dP][dA][dV][dR][dT][dN][dS])",binding affinity to glucose-regulated protein GRP78,[3],high binding affinity
"^LVAP: L-type amino acid sequence SNTRVAP, SEQ ID NO: 1",binding affinity to glucose-regulated protein GRP78,[3],high binding affinity
COc1cccc2c1C(=O)c1c(O)c3c(c(O)c1C2=O)C[C@@](O)(C(CO)=NNC(=O)CCCCCN1C(=O)CC(SC[C@H](NC(=O)CCOCCOCCNC(=O)c2ccc(O)cc2)C(=O)N2CCC[C@@H]2C(=O)N[C@H](C)C(=O)N[C@@H](C(=O)N[C@H](CCCNC(=N)N)C(=O)N[C@@H](C(=O)N[C@H](CC(N)=O)C(=O)N[C@H](CO)C(=O)O)[C@H](C)O)C(C)C)C1=O)C[C@@H]3O[C@H]1C[C@H](N)[C@H](O)[C@H](C)O1 (stereo partly drawn) [pHA-AO2HX-VAP-DOX],brain accumulation of DOX,[4],greatest increase
"COc1cccc2c1C(=O)c1c(O)c3c(c(O)c1C2=O)C[C@@](O)(C(=O)CO)C[C@@H]3O[C@H]1C[C@H](N)[C@H](O)[C@H](C)O1 [DOX, doxorubicin]",solubility at 24 h,[5],220 ± 30 µg/mL
same,uptake by U87 cells (intracellular DOX),Tumor cells U87,higher cellular uptake
same,MTD at 336 h,[6],~10 mg/kg
same,median survival time,U87 orthotopic glioma,35.5 days
same,expression of GRP78 protein on the cell membrane surface of U87 cells,"GRP78 protein [1]; different concentrations, 48 hours",significantly upregulated
"^SVAP: D-type amino acid sequence ^DS^DN^DT^DR^DV^DA^DP, SEQ ID NO: 4 (SNTRVAP; all D-amino acids; VARIANT 1..7: note = D type amino acid)",binding affinity to glucose-regulated protein GRP78,[3],high binding affinity
